Legend:
Raw 264.7 cell line = test: NO scavenging activity in LPS-treated immune cells (Griess reagent); format: cell-based; conditions: Mus musculus, RAW264.7, Raw 264.7, LPS 500 ng/mL, 24 hours, read-out: NO Scavenging Activity (%) (Mean±SD)
Procedure: Raw 264.7 cell line was seeded in a 48-well plate at a density of 8×10^4 cells/well, and cultured at 37°C in a DMEM medium including 10% FBS, 100 U/mL of penicillin and 100 µg/mL of streptomycin.
The medium was cultured overnight, and then replaced with a fresh medium including 10 µM of the pharmaceutical composition sensitive to nitrogen monoxide including the compound of each of Examples 1 to 30 and 500 ng/mL of LPS, and the fresh medium was cultured again for another 24 hours.
Lastly, in order to measure the amount of NO produced, the amount of NO2^- present in the cell culture medium was measured using a Griess reagent (sulfanilamide, N-1-naphthylethylenediamine dihydrochloride). Specifically, 100 µL of a Griess reagent was mixed with a mixture solution of 50 µL of the cell culture medium and 50 µL of PBS. The mixture solution was reacted for 10 minutes in a well plate, and absorbance thereof at 540 nm was measured.

IFN-γ = IFN-γ reduction activity in Concanavalin A-treated splenocytes (quantitative ELISA); format: cell-based, C57BL/6 mouse; conditions: Mus musculus, Splenocyte, Concanavalin A 5 µg/mL, 72 hours, read-out: IFN-γ Reduction Activity (%) (Mean±SD)
Procedure: (§1) A spleen was isolated from an 8-week-old C57BL/6 mouse, and splenocytes were isolated using a physical method.
(§2) The separated splenocytes were diluted to a concentration of 5×10^6 cells/mL in a RPMI 1640 medium including 10% FBS, 100 U/mL of penicillin and 100 µg/mL of streptomycin, and the diluted splenocytes were dispensed at 500 µL/well into a 48-well plate and 100 µL/well into a 96-well plate, and cultured for 72 hours in an incubator. The splenocytes were treated with Concanavalin A (5 µg/mL) when dispensed to induce an immune response, and herein, […] of the pharmaceutical composition including the compound according to each of the Examples was also added thereto. After 72 hours, the supernatant was collected, and the level of remaining NO was checked through a Griess assay, and calculated by the following Equation 4.
NO is one of important inflammatory mediators, and may increase the level of inflammatory cytokine. Concanavalin A (5 µg/mL), which induces an immune response in splenocytes, and the compound of each of Examples were treated in a concentration-dependent manner to check whether the level of IFN-γ, a representative inflammatory cytokine, was reduced. The supernatant was collected 72 hours after the treatment, and analyzed using a quantitative enzyme-linked immunosorbent assay (Quantitative-ELISA).

splenocytes [1] = test: NO scavenging activity in Concanavalin A-treated splenocytes (Griess assay); format: cell-based, C57BL/6 mouse; conditions: Mus musculus, Splenocyte, Concanavalin A 5 µg/mL, 72 hours, read-out: NO Scavenging Activity (%) (Mean±SD)
Procedure: as §1, §2

splenocytes [2] = test: Inhibitory activity on cell proliferation in splenocytes (CCK-8 analysis); format: cell-based, C57BL/6 mouse; conditions: Mus musculus, Splenocyte, Concanavalin A 5 µg/mL, 72 hours, read-out: Inhibitory Activity on Cell Proliferation (%) (Mean±SD)
[3] = DAF-2 assay of NO scavenging activity without and with H2O2 (ROS); format: biochemical; conditions: SNAP 100 µM, DAF-2 10 µM, 3 hours, 37°C; for NO Scavenging Activity (%) (Mean±SD) With H2O2: H2O2 1 mM
Procedure: The pharmaceutical composition sensitive to nitrogen monoxide including the compound according to each of Examples 23 to 28 and 32 may have scavenging activity for reactive oxygen species (ROS). NO scavenging activity of the pharmaceutical composition was evaluated through a DAF-2 assay.
Specifically, to a 100 µM solution of SNAP, the compound synthesized in each of the Examples was added at a concentration of the following Table 2, and reacted. Then 10 µM of DAF-2 was added thereto, followed by a reaction for 3 hours in a 37°C incubator.
Additionally, a stock solution of H2O2 (10 M) was added to the reaction solution so that SNAP and H2O2 had final concentrations of 100 µM and 1 mM, respectively. Then, the compound synthesized in each of the Examples was added thereto at a concentration of the following Table 11, followed by a reaction in the same manner, and NO scavenging activity was calculated by Equation 1.

JAK 1 = JAK 1 (Homo sapiens, UniProt P23458); test: JAK Human TK kinase enzymatic radiometric assay (Eurofins), JAK 1; conditions: value close to 100 indicates low JAK activity of the compound
Text: For the compounds of the Examples, JAK activity of each of the compounds was verified using the JAK Human TK Kinase Enzymatic Radiometric Kinase Profiler Assay service provided by Eurofins Scientific.
The activity was verified after inducing a reaction at the JAK 1, 2 and 3 active sites using radioactively labeled ATP.

[4] = DAF-2 assay of NO scavenging activity (NO donor SNAP); format: biochemical; conditions: DAF-2 10 µM, SNAP 100 µM, PBS, 3 hours, 37°C
Procedure: NO scavenging activity of the pharmaceutical composition sensitive to nitrogen monoxide including the compound according to each of Examples 1 to 22, 29 to 31, and 33 to 35 was evaluated through a DAF-2 assay.
Specifically, a reagent stock solution was made using DMSO (dimethyl sulfoxide) in order to prepare 5 mM of DAF-2, 100 mM of SNAP and 5 mM of the compound synthesized in each of the Examples, and for the reaction, the solution was added to a PBS (phosphate buffered saline) solution so that DAF-2, SNAP and the compound had final concentrations of 10 µM, 100 µM and the concentration of Table 1, respectively, followed by a reaction for 3 hours in a 37°C incubator.

JAK 1, sequence (P23458 whole entry): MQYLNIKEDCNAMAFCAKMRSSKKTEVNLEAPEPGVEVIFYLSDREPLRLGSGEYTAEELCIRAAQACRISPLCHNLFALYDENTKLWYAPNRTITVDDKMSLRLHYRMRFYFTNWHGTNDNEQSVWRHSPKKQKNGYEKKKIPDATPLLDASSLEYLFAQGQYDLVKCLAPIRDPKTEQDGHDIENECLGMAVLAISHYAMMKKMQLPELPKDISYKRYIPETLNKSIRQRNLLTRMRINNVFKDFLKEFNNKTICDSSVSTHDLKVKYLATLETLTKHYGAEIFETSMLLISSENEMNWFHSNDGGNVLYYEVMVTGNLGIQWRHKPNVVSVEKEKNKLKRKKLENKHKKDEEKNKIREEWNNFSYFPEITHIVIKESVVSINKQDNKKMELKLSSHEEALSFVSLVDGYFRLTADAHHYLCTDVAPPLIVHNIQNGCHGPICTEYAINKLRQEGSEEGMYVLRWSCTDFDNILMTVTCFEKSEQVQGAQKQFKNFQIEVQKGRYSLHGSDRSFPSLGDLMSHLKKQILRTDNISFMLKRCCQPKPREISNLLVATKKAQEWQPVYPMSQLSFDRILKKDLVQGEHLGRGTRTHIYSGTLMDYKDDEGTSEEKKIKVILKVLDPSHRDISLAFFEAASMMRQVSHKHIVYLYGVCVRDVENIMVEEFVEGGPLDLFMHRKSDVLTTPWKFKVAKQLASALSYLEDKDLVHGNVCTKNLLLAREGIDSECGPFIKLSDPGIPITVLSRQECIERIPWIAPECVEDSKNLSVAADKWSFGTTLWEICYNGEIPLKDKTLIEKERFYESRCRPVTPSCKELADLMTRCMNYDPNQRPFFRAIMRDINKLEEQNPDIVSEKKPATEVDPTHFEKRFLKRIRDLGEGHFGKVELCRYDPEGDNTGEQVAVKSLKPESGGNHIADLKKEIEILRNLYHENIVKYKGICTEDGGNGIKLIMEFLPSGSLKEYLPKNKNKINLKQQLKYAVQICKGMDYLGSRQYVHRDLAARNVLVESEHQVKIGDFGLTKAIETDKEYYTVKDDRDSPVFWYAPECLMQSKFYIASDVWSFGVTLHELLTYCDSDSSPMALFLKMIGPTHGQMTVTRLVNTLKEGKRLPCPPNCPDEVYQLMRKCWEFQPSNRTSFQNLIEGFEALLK

JAK 1 Activity (JAK 1; 0.1 nM) | JAK 1 Activity (JAK 1; 1 nM) | JAK 1 Activity (JAK 1; 10 nM) | JAK 1 Activity (JAK 1; 100 nM) | SMILES | activity at 10 µM (Raw 264.7 cell line) [%] | activity at 10 µM (IFN-γ) [%] | activity at 10 µM (splenocytes [1]) [%] | inhibition at 10 µM (splenocytes [2]) [%] | NO Scavenging Activity (%) (Mean±SD) Without H2O2 ([3]; compound 1 µM) | NO Scavenging Activity (%) (Mean±SD) With H2O2 ([3]; compound 1 µM) | NO Scavenging Activity (%) (Mean±SD) Without H2O2 ([3]; compound 5 µM) | NO Scavenging Activity (%) (Mean±SD) With H2O2 ([3]; compound 5 µM) | NO Scavenging Activity (%) (Mean±SD) Without H2O2 ([3]; compound 10 µM) | NO Scavenging Activity (%) (Mean±SD) With H2O2 ([3]; compound 10 µM) | NO Scavenging Activity (%) (Mean±SD) ([4]; compound 1 µM) | NO Scavenging Activity (%) (Mean±SD) ([4]; compound 5 µM) | NO Scavenging Activity (%) (Mean±SD) ([4]; compound 10 µM)
– | – | – | – | C[C@@H]1CCN(C(=O)CC#N)C[C@@H]1N(C)c1ncnc2c1ccn2C(=O)N(C)CCN(C)C(=O)Nc1cc2c(cc1NC(=O)OCc1ccc(B(O)O)cc1)n(C)c(=O)n2C [Example 24, (4-((((6-(3-(2-(4-(((3R,4R)-1-(2-cyanoacetyl)-4-methylpiperidin-3-yl)(methyl)amino)-N-methyl-7H-pyrrolo[2,3-d]pyrimidine-7-carboxamido)ethyl)-3-methylureido)-1,3-dimethyl-2-oxo-2,3-dihydro-1H-benzo[d]imidazol-5-yl)carbamoyl)oxy)methyl)phenyl)boronic acid] | 9.8 ± 0.64 | 95.5 ± 0.15 | 78.3 ± 0.5 | 67.2 ± 4.67 | 16.43 ±4.86 | 34.66 ±3.80 | 27.84 ±7.68 | 43.58 ±6.00 | 40.54 ±3.96 | 53.52 ±3.09 | – | – | –
– | – | – | – | COc1ccc(NC(=O)OCc2ccc(B3OC(C)(C)C(C)(C)O3)cc2)c(NC(=O)n2ccc3c(N(C)[C@H]4CN(C(=O)CC#N)CC[C@H]4C)ncnc32)c1 [Example 27, 4-(4,4,5,5-tetramethyl-1,3,2-dioxaborolan-2-yl)benzyl (2-(4-(((3R,4R)-1-(2-cyanoacetyl)-4-methylpiperidin-3-yl) (methyl)amino)-7H-pyrrolo[2,3-d]pyrimidine-7-carboxamido)-4-methoxyphenyl)carbamate] | 59.3 ± 0.06 | 74.6 ± 2.41 | 77.6 ± 1.24 | 81.1 ± 9.03 | – | – | – | – | 59.31 ±0.55 | 97.09 ±0.01 | – | – | –
– | – | – | – | C[C@@H]1CCN(C(=O)CC#N)C[C@@H]1N(C)c1ncnc2c1ccn2C(=O)Nc1cc2c(cc1N)n(C)c(=O)n2C [Example 10, N-(6-amino-1,3-dimethyl-2-oxo-2,3-dihydro-1H-benzo[d]imidazol-5-yl)-4-(((3R,4R)-1-(2-cyanoacetyl)-4-methylpiperidin-3-yl)(methyl)amino)-7H-pyrrolo[2,3-d]pyrimidine-7-carboxamide] | 93.7 ± 0.11 | 93 ± 2.99 | 77 ± 0.87 | 76.3 ± 2.45 | – | – | – | – | – | – | – | – | –
– | – | – | – | Cc1ccc(NC(=O)n2ccc3c(N(C)[C@H]4CN(C(=O)CC#N)CC[C@H]4C)ncnc32)c(N)c1 [Example 3, N-(2-amino-4-methylphenyl)-4-(((3R,4R)-1-(2-cyanoacetyl)-4-methylpiperidin-3-yl)(methyl)amino)-7H-pyrrolo[2,3-d]pyrimidine-7-carboxamide] | 95.4 ± 0.11 | 99.1 ± 0.61 | 98.1 ± 0.34 | 76.2 ± 2.45 | – | – | – | – | – | – | – | – | –
102 | 90 | 99 | 66 | Cc1ccc(NC(=O)N(C)CCN(C)C(=O)n2ccc3c(N(C)[C@H]4CN(C(=O)CC#N)CC[C@H]4C)ncnc32)c(N)c1 [Example 15, N-(2-(3-(2-amino-4-methylphenyl)-1-methylureido)ethyl)-4-(((3R,4R)-1-(2-cyanoacetyl)-4-methylpiperidin-3-yl) (methyl)amino)-N-methyl-7H-pyrrolo[2,3-d]pyrimidine-7-carboxamide] | 54 ± 0.59 | 86.5 ± 0.29 | 31.6 ± 0.16 | 22.6 ± 6.36 | – | – | – | – | – | – | – | – | –
91 | 97 | 84 | 77 | C[C@@H]1CCN(C(=O)CC#N)C[C@@H]1N(C)c1ncnc2c1ccn2C(=O)N(C)CCN(C)C(=O)Nc1cc2c(cc1N)n(C)c(=O)n2C [Example 22, N-(2-(3-(6-amino-1,3-dimethyl-2-oxo-2,3-dihydro-1H-benzo[d]imidazol-5-yl)-1-methylureido)ethyl)-4-(((3R,4R)-1-(2-cyanoacetyl)-4-methylpiperidin-3-yl) (methyl)amino)-N-methyl-7H-pyrrolo[2,3-d]pyrimidine-7-carboxamide] | 31.3 ± 0.88 | – | 45.9 ± 0.51 | 19.4 ± 0.21 | – | – | – | – | – | – | 14.83 ±6.51 | 36.86 ±2.09 | 48.96 ±3.12
– | – | – | – | Cc1ccc(N)c(NC(=O)n2ccc3c(N(C)[C@H]4CN(C(=O)CC#N)CC[C@H]4C)ncnc32)c1 [Example 2, N-(2-amino-5-methylphenyl)-4-(((3R,4R)-1-(2-cyanoacetyl)-4-methylpiperidin-3-yl)(methyl)amino)-7H-pyrrolo[2,3-d]pyrimidine-7-carboxamide] | 78.1 ± 0.21 | 95.2 ± 0.39 | 94.3 ± 0.27 | 90.4 ± 4.69 | – | – | – | – | – | – | – | – | –
101 | 104 | 98 | 59 | Cc1ccc(N)c(NC(=O)N(C)CCN(C)C(=O)n2ccc3c(N(C)[C@H]4CN(C(=O)CC#N)CC[C@H]4C)ncnc32)c1 [Example 16, N-(2-(3-(2-amino-5-methylphenyl)-1-methylureido)ethyl)-4-(((3R,4R)-1-(2-cyanoacetyl)-4-methylpiperidin-3-yl) (methyl)amino)-N-methyl-7H-pyrrolo[2,3-d]pyrimidine-7-carboxamide] | 49.3 ± 0.23 | 81.4 ± 0.5 | 27.1 ± 1.2 | 25 ± 5.67 | – | – | – | – | – | – | – | – | –
– | – | – | – | C[C@@H]1CCN(C(=O)CC#N)C[C@@H]1N(C)c1ncnc2c1ccn2C(=O)Nc1cc(N(C)C)ccc1N [Example 5, N-(2-amino-5-(dimethylamino)phenyl)-4-(((3R,4R)-1-(2-cyanoacetyl)-4-methylpiperidin-3-yl)(methyl)amino)-7H-pyrrolo[2,3-d]pyrimidine-7-carboxamide] | 84.1 ± 0.01 | 96.1 ± 0.45 | 94.1 ± 0.52 | 60.5 ± 5.48 | – | – | – | – | – | – | – | – | –

Source: patent EP4741395A1, “NOVEL COMPOUND SENSITIVE TO NITROGEN MONOXIDE AND PHARMACEUTICAL COMPOSITION COMPRISING SAME” (Omniamed Co. Ltd, priority 2023, dated 2025)
